Assay results published in PubChem BioAssay AID1419 (Emory University Molecular Libraries Screening Center, 2008).
Activity calls are given as the source filed them. The rule behind the calls is not given here.

Assay: blockers of an Epstein-Barr virus protein-peptide interaction – biochemical, fluorescence polarization, dose response (AID 1419)
Conditions: cell-free protein-peptide binding, 2 h; for fold change: measured here: P channel fold over control, at 54 µM

| Compound | IC50 | fold change |
| --- | --- | --- |
| Cc1[nH]c(=O)[nH]c(=O)c1S(=O)(=O)N1CCN(c2ccccc2F)CC1 | > 54 µM (inactive) | 1.04 |
| CCCCC1=CC2=C(c3ccco3)C(=O)C(C)(OC(=O)c3ccc(OC)cc3)C(=O)C2=CN1Cc1ccccc1 (centres undefined) | > 54 µM (inactive) | 1.7 |
| COc1ccc(S(=O)(=O)NCCc2ccc(F)cc2)cc1 | > 54 µM (inactive) | 0.98 |
| Nc1cc2nc3ccccc3nc2cc1N | < 0.42 µM | 24.2 |
| CC(O)CCc1nc2ccc(C(=O)O)cc2[nH]1 (centres undefined) | > 54 µM (inactive) | 0.983 |
| COc1nc(NCCC2=CCCCC2)nc(OC)n1 | > 54 µM (inactive) | 1 |
| CCOc1ccc2[nH]c(=O)c(CN(CC3COCCO3)C(=O)C3CC3)cc2c1 (centres undefined) | > 54 µM (inactive) | 1.04 |
| Cc1nn(-c2ccccc2)c(N2CCCC2)c1/C=C1\N=C(c2ccc(F)cc2)OC1=O | 7.44 µM | 5.64 |
| O=[N+]([O-])c1ccc(/C=C/c2nc3ccc([N+](=O)[O-])cc3[nH]2)cc1 | 2.48 µM | 1.15 |
| O=C(c1ccccc1)c1ccc2c(c1)OCCCO2 | > 54 µM (inactive) | 1.02 |
| Cc1cc2nc3c(=O)n(C4CCCCC4)c(=O)[nH]c3nc2cc1N | < 0.42 µM | 132 |
| Nc1c(C(=O)NC2CC2)sc2nc3c(c(-c4ccco4)c12)CC/C3=C/c1ccco1 | 1.32 µM | 3.52 |
| CCC(C)NC(=O)c1ccc(CSCc2cccc(F)c2)o1 (centres undefined) | > 54 µM (inactive) | 1.08 |
| COC(=O)c1ccccc1NC(=O)Nc1ncccc1C | > 54 µM (inactive) | 0.937 |
| Nc1ccc2nc3c(=O)[nH]c(=S)[nH]c3nc2c1 | < 0.42 µM | 86.2 |
| CCCCOc1ccc(-c2cc(C(F)(F)F)c(C#N)c(SCC(=O)O)n2)cc1 | 6.68 µM | 4 |
| COc1ccc(-n2cccc2/C=C2\C(=N)N3N=C(c4ccco4)SC3=NC2=O)cc1 | 2.85 µM | 1.17 |
| Cc1ccc(S(=O)(=O)c2c(N)n(Cc3ccco3)c3nc4ccccc4nc23)cc1 | > 54 µM (inactive) | 1.41 |
| Cc1ccc(N2C(=O)C3C(C(=O)c4ccccc4)=NN(c4ccccc4)C3C2=O)cc1 (centres undefined) | 7.31 µM | 8.5 |
| CCCc1cc(=O)n(-c2nc3ccccc3s2)[nH]1 | > 54 µM (inactive) | 0.94 |
| COc1ccc(/C=N/N=C2/CC(C)(C)Cc3n[nH]c(=O)cc32)cc1 | 4.15 µM | 3.61 |

| Compound | IC50 | fold change |
| --- | --- | --- |
| Cc1ccc(S(=O)(=O)C(C#N)c2nc3ccccc3nc2N2CCCC2)cc1 (centres undefined) | > 54 µM (inactive) | 1.67 |
| O=c1[nH]c(S)c(/C=C2\C=Nc3ccccc32)s1 | 2 µM | 3.56 |
| CCN(CC)c1ccc(C=C2C(=O)OC(c3ccccc3)OC2=O)cc1 (centres undefined) | 14.6 µM | 10.8 |
| COC(=O)c1ccc2c(c1)SC1=C(CCCC1=O)N2 | 1.44 µM | 3.08 |
| C#CCOC(=O)/C(=C/C=C/c1ccccc1)NC(=O)c1ccccc1 | > 54 µM (inactive) | 1.01 |
| Cc1ccc(S(=O)(=O)Nc2nc3ccccc3nc2Nc2cccc(S(=O)(=O)N3CCCC3)c2)cc1 | 2.64 µM | 2.44 |
| O=C(O)c1ccc2c3c(ncnc13)-c1ccccc1C2=O | > 54 µM (inactive) | 1.83 |
| COC(=O)C1C=C2c3cccc4[nH]cc(c34)CC2N(C)C1 (centres undefined) | 1.66 µM | 6.81 |
| CC(=O)Nc1ccc(Nc2c3c4c(cccc4n(C)c2=O)C(=O)c2ccccc2-3)cc1 | < 0.42 µM | 9.61 |
| O=C(N/N=C/c1cc(Cl)cc(Cl)c1O)c1ccncc1 | 1.81 µM | 5.72 |
| CC(=O)N1CCCc2cc(S(=O)(=O)N(CC(C)C)CC(C)C)ccc21 | > 54 µM (inactive) | 0.967 |
| N#C/C(=C/c1ccc(-c2ccc(S(N)(=O)=O)cc2)o1)c1nc2ccccc2s1 | > 54 µM (inactive) | 30.3 |
| Cc1cc(C(F)(F)F)n2nc(-c3sccc3-n3cccc3)cc2n1 | > 54 µM (inactive) | 0.957 |
| Nc1ccc2nc3c(=O)n(CCc4ccccc4)c(=O)[nH]c3nc2c1 | < 0.42 µM | 94.8 |
| CCOC(=O)C1CCN(C(=O)Nc2ccc3nc(-c4ccco4)c(-c4ccco4)nc3c2)CC1 | 5.89 µM | 2.82 |
| COc1ccc(C2CC(c3cccs3)=NN2c2ccc(C=O)cc2)cc1 (centres undefined) | 16.2 µM | 15.4 |
| COc1ccccc1N1C(=O)C2C(C(=O)c3ccccc3)=NN(c3ccc(Br)cc3)C2C1=O (centres undefined) | > 54 µM (inactive) | 16.6 |
| N#Cc1cc(C(=O)c2ccccc2O)cn(-c2nccs2)c1=O | 5.3 µM | 14.2 |
| CC(C)c1ccc(/C=C/C(=O)n2nnc3ccccc32)cc1 | > 54 µM (inactive) | 0.857 |
| COC(=O)c1cc2n3ccccc3c(C)c(-c3ccccc3)c-2c1C(=O)OC | 2.69 µM | 4.46 |
| Cn1c(=O)c2[nH]c(-c3ccccc3)c(O)c2n(C)c1=O | < 0.42 µM | 6.43 |

| Compound | IC50 | fold change |
| --- | --- | --- |
| Cc1ccsc1C1C=C(c2cccc(Br)c2)Nc2ncnn21 (centres undefined) | 1.75 µM | 3.13 |
| COc1ccc(NC(=O)N(CCc2ccccc2)Cc2cc3c(C)cc(C)cc3[nH]c2=O)cc1 | > 54 µM (inactive) | 0.987 |
| Cc1cccc2c3nc4ccccc4nc3n(CCCN3C(=O)c4ccccc4C3=O)c12 | 15.9 µM | 3.01 |
| CCOC(=O)c1[nH]cnc1N=Nc1c(O)ccc2ccccc12 | 7.35 µM | 2.68 |
| O=C1c2ccccc2-c2onc3ccc(NCc4ccco4)c1c23 | < 0.42 µM | 61.5 |
| CCN(CC)c1ccc2cc(S(=O)(=O)c3ccc(Cl)cc3)c(=O)oc2c1 | 6.12 µM | 98.4 |
| O=C(CSc1nnc(SCc2ccccc2)s1)N/N=C/C=C/c1ccco1 | > 54 µM (inactive) | 1.04 |
| C=CCc1cccc(C=Nc2cc(Br)ccc2O)c1O | 5.72 µM | 27.4 |
| Cc1ccc(/C=C/C(=O)OCc2nc(N)nc(Nc3ccccc3C)n2)o1 | > 54 µM (inactive) | 0.917 |
| Cc1ccc[n+](-c2nc([O-])sc2C=O)c1 | 0.65 µM | 44.1 |
| CCN(CC)c1ccc2c(c1)oc(=O)c1c(Cl)cc(=O)oc12 | 6.37 µM | 11.9 |
| O=C(Nc1ccc2nc3ccccc3nc2c1)c1ccccc1 | 15.5 µM | 1.85 |
| O=C1NC(=O)C2=Cc3ccc(O)cc3OC2(O)N1 (centres undefined) | < 0.42 µM | 100 |
| O=C(C1=NN(c2ccccc2)C2C(=O)N(c3ccccc3)C(=O)C12)c1ccccc1 (centres undefined) | 6.24 µM | 3.88 |
| CSC1=NSC2=NC(=O)/C(=C\c3coc4ccccc4c3=O)C(=N)N12 | 2.74 µM | 82.6 |
| COc1ccc(C2=CC(c3ccco3)n3ncnc3N2)cc1 (centres undefined) | 1.31 µM | 12.4 |
| CCCCNC(=O)CN1C(=O)c2cccc(N)c2C1=O | 2.71 µM | 2.44 |
| CCN(CC)CCN1C2=C(C(=O)CC(C)(C)C2)C(c2cccc(F)c2)C2=C1CC(C)(C)CC2=O | > 54 µM (inactive) | 1.03 |
| CCN(CC)C(=O)/C(=C\c1ccc(Br)cc1)NC(=O)c1ccccc1OC | 4.67 µM | 1.15 |
| O=C(CSc1nc2ncccc2[nH]1)Nc1ccc2c(c1)OCO2 | > 54 µM (inactive) | 1.02 |
| C=CCn1c(O)c(N=NC(=O)CNC(=O)/C=C/c2ccco2)c2ccccc21 | > 54 µM (inactive) | 0.747 |

| Compound | IC50 | fold change |
| --- | --- | --- |
| CN1C=CC2=C(C#N)C(N)C(C#N)(C#N)C(c3ccccc3)C2C1 (centres undefined) | 4.53 µM | 3.69 |
| CC(=O)OCCCNc1cc(Sc2nc3ccccc3s2)c2nonc2c1[N+](=O)[O-] | 9.79 µM | 4.44 |
| CCN1CC=C2C(C#N)=C(N)C(C#N)(C#N)C(c3cc(Cl)ccc3Cl)C2C1 (centres undefined) | > 54 µM (inactive) | 4.31 |
| CSc1nc(SCC(=O)O)c2sc3nc(-c4ccccc4)c4c(c3c2n1)CCC4 | 3.47 µM | 1.08 |
| Cc1cc(C)n2c(SC/C(O)=C(\C#N)c3nc4ccccc4[nH]3)nnc2n1 | 20.1 µM | 1.1 |
| COc1ccc2nc(C)cc(N3CCOCC3)c2c1 | > 54 µM (inactive) | 1.04 |
| CC(C)(C)c1ccc(C(=O)Nc2cccc3c(=O)[nH][nH]c(=O)c23)cc1 | 5.97 µM | 3.72 |
| COc1cc(C2C(C#N)=C(N)OC3=C2C(=O)CC(C)(C)C3)c([N+](=O)[O-])cc1OC (centres undefined) | 6.61 µM | 1.98 |
| COc1ccccc1NC(=O)C(=O)N/N=C/c1ccc([N+](=O)[O-])s1 | > 54 µM (inactive) | 1.09 |
| CC(C)[C@H]1C(=O)N2CCC[C@H]2[C@]2(O)O[C@](NC(=O)[C@@H]3C=C4c5cccc6[nH]cc(c56)C[C@H]4N(C)C3)(C(C)C)C(=O)N12 | 3.64 µM | 5.11 |
| COc1cccc(CN2C(=O)c3cccc(N)c3C2=O)c1 | 4.47 µM | 2.76 |
| CCn1cc(C(=O)NCc2ccccn2)c(=O)c2cc(S(=O)(=O)N3CCCCC3)ccc21 | 0.74 µM | 4.52 |
| O=c1[nH]c(=O)n(Cc2ccccc2Cl)c(O)c1/C=C1/C=CC=N1 | > 54 µM (inactive) | 1.75 |
| CCOc1ccc2nc(N3C(=O)/C(=C/c4ccc(Cl)cc4)NC3=S)sc2c1 | > 54 µM (inactive) | 1.35 |
| CCOc1ccc(Cn2c3ccc(OC)cc3c3nc4ccccc4nc32)cc1 | 1.15 µM | 6.17 |
| Oc1oc(-c2ccccc2)nc1C=Nc1cccc2ccccc12 | 7.47 µM | 3.16 |
| COc1cc(CN2CCN(c3cccc(C)c3C)CC2)cc(OC)c1O | > 54 µM (inactive) | 1.03 |
| CCNc1ccc2noc3c2c1C(=O)c1ccccc1-3 | < 0.42 µM | 235 |
| COc1cccc(/C(O)=C/c2nc3ccc(C(=O)NCCc4ccc(Cl)cc4)cc3[nH]c2=O)c1 | < 0.42 µM | 12.1 |
